In BindingDB's records for doi:10.7270/Q20K28JQ (Dupont Pharmaceuticals, 1996) one finds IC50 data, which are given here for 3 molecules.

The structures appear in SMILES notation.

This assay has as its target T1, Sterol O-acyltransferase 1 (Rattus norvegicus, UniProt O70536).
T1 sequence (O70536 whole entry): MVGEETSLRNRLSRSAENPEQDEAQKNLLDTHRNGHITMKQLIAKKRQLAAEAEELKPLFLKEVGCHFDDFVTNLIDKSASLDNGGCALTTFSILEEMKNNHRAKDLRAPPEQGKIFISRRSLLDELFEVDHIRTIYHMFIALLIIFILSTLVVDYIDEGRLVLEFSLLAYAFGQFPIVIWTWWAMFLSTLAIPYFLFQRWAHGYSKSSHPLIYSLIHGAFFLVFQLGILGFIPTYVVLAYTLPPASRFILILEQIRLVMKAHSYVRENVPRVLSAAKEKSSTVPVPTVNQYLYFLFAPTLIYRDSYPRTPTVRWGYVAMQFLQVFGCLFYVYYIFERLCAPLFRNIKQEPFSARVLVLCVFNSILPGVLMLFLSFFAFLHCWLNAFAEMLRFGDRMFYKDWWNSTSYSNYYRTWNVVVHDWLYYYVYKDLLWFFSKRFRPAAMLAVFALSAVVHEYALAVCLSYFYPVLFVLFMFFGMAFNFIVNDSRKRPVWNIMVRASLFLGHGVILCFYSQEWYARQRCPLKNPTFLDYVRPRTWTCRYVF
Briefly: ChEBML_28359. The source says:
In vitro inhibition of rat liver microsomal Acyl coenzyme A:cholesterol acyltransferase
Broadly, the IC50 is the concentration needed to halve the response being measured. A lower IC50 goes with greater potency in that assay. In turn, `CN(C(=O)c1ccc(C#N)cc1)[C@@H]1N(C)C(c2ccc(C#N)cc2)=NC1(C(F)(F)F)C(F)(F)F` had an IC50 of 55000 nM.
In the case of `CN(C(=O)c1ccc(C#N)cc1)C1N(C)C(c2ccc(C#N)cc2)=NC1(C(F)(F)F)C(F)(F)F` (stereo not drawn) it was 1900 nM; in that of `CN(C(=O)c1ccc(C#N)cc1)[C@H]1N(C)C(c2ccc(C#N)cc2)=NC1(C(F)(F)F)C(F)(F)F`, 1000 nM.
